{
  "source": "patent US20130116286A1",
  "about": "“DROXIDOPA AND PHARMACEUTICAL COMPOSITION THEREOF FOR THE TREATMENT OF NEURALLY MEDIATED HYPOTENSION” (Chelsea Therapeutics, Inc., priority 2007, published 2013)",
  "key": {"[1]": {"system": "plasma norepinephrine", "assay": "Plasma norepinephrine concentration after dosing with droxidopa or droxidopa combinations in rats", "assay_type": "in vivo, male Sprague Dawley rats", "settings": "versus vehicle alone, 2 hours post-dosing, rat", "experimental": "The pharmacokinetic properties of droxidopa combinations useful in the methods of the invention were evaluated in male Sprague Dawley rats.\nAdministration of droxidopa combinations was seen to affect plasma norepinephrine concentration in comparison to administration of droxidopa alone. Formulation 0 indicates administration of the vehicle alone without droxidopa or a droxidopa combination of the invention and provides a baseline comparative of plasma norepinephrine levels in an untreated subject."}, "[2]": {"system": "MAO-A than MAO-B", "settings": "cited from earlier work"}},
  "data": [
    {"smiles": "NC(C(=O)O)C(O)c1ccc(O)c(O)c1", "note": "(stereo not drawn) [droxidopa, threo-3-(3,4-dihydroxyphenyl)serine]", "values": [
      {"measurement": "increase in plasma norepinephrine concentration", "setting": "[1]", "value": "~5", "unit": "fold"}
    ]},
    {"smiles": "O=C(NCCN1CCOCC1)c1ccc(Cl)cc1", "note": "[moclobemide]", "values": [
      {"measurement": "selectivity for MAO-A than MAO-B", "setting": "[2]", "value": "approximately three times more selective for MAO-A than MAO-B"}
    ]}
  ]
}
